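Each compound was tested at five concentrations against cells in 96-well plates for 48 hours. TGI: total growth inhibition.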
Legend:
Test in all cases: NCI-60 cell line screen, 48 h
[1] = tested on: 786-0 renal
[2] = tested on: A549 NSCLC
[3] = tested on: ACHN renal
[4] = tested on: BT-549 breast
[5] = tested on: CAKI-1 renal
[6] = tested on: CCRF-CEM leukemia
[7] = tested on: COLO 205 colon
[8] = tested on: EKVX NSCLC
[9] = tested on: HCT-116 colon
[10] = tested on: HCT-15 colon
[11] = tested on: HL-60(TB) leukemia
[12] = tested on: HOP-62 NSCLC
[13] = tested on: HS 578T breast
[14] = tested on: HT29 colon
[15] = tested on: IGROV1 ovarian
[16] = tested on: K-562 leukemia
[17] = tested on: KM12 colon
[18] = tested on: LOX IMVI melanoma
[19] = tested on: M14 melanoma
[20] = tested on: MALME-3M melanoma
[21] = tested on: MCF7 breast
[22] = tested on: MDA-MB-231 breast
[23] = tested on: MDA-MB-435
[24] = tested on: MDA-N
[25] = tested on: MOLT-4 leukemia
[26] = tested on: NCI-H226 lung
[27] = tested on: NCI-H460 lung
[28] = tested on: NCI-H522 lung
[29] = tested on: NCI/ADR-RES ovarian
[30] = tested on: OVCAR-3 ovarian
[31] = tested on: OVCAR-8 ovarian
[32] = tested on: PC-3 prostate
[33] = tested on: RPMI-8226 leukemia
[34] = tested on: RXF 393 renal
[35] = tested on: SF-268 CNS
[36] = tested on: SF-295 CNS
[37] = tested on: SF-539 CNS
[38] = tested on: SK-MEL-28 melanoma
[39] = tested on: SK-MEL-5 melanoma
[40] = tested on: SK-OV-3 ovarian
[41] = tested on: SN12C renal
[42] = tested on: SNB-19 CNS
[43] = tested on: SNB-75 CNS
[44] = tested on: SR leukemia
[45] = tested on: SW-620 colon
[46] = tested on: T-47D breast
[47] = tested on: TK-10 renal
[48] = tested on: U251 CNS
[49] = tested on: UACC-257 melanoma
[50] = tested on: UACC-62 melanoma
[51] = tested on: UO-31 renal
[52] = tested on: A498 renal
[53] = tested on: DU-145 prostate
[54] = tested on: HCC-2998 colon
[55] = tested on: HOP-92 NSCLC
[56] = tested on: NCI-H23 lung
[57] = tested on: OVCAR-4 ovarian
[58] = tested on: OVCAR-5 ovarian
[59] = tested on: SK-MEL-2 melanoma

NC1=NCC(CN2CCCCC2)O1 (configuration not stated) was tested, and the TGI [1] was > 100 µM, the TGI [2] was > 100 µM and the TGI [3] was > 100 µM. The TGI [4] was > 100 µM, the TGI [5] was > 100 µM and the TGI [6] was > 100 µM. The TGI [7] was > 100 µM, the TGI [8] was > 100 µM and the TGI [9] was > 100 µM. For the same compound, the TGI [10] was > 100 µM, the TGI [11] was > 100 µM and the TGI [12] was > 100 µM. The TGI [13] was > 100 µM, the TGI [14] was > 100 µM and the TGI [15] was > 100 µM. The TGI [16] was > 100 µM, the TGI [17] was > 100 µM and the TGI [18] was > 100 µM. The TGI [19] was > 100 µM, the TGI [20] was > 100 µM and the TGI [21] was > 100 µM. For the same compound, the TGI [22] was > 100 µM, the TGI [23] was > 100 µM and the TGI [24] was > 100 µM. The TGI [25] was > 100 µM, the TGI [26] was > 100 µM and the TGI [27] was > 100 µM. For the same compound, the TGI [28] was > 100 µM, the TGI [29] was > 100 µM and the TGI [30] was > 100 µM. The TGI [31] was > 100 µM, the TGI [32] was > 100 µM and the TGI [33] was > 100 µM. The TGI [34] was > 100 µM, the TGI [35] was > 100 µM and the TGI [36] was > 100 µM. For the same compound, the TGI [37] was > 100 µM, the TGI [38] was > 100 µM and the TGI [39] was > 100 µM. The TGI [40] was > 100 µM, the TGI [41] was > 100 µM and the TGI [42] was > 100 µM. The TGI [43] was > 100 µM, the TGI [44] was > 100 µM and the TGI [45] was > 100 µM. For the same compound, the TGI [46] was > 100 µM, the TGI [47] was > 100 µM and the TGI [48] was > 100 µM. The TGI [49] was > 100 µM, the TGI [50] was > 100 µM and the TGI [51] was > 100 µM.
Cc1occc1C(=S)Nc1ccc(Cl)c(C(=O)OCC(C)C)c1 was tested, and the TGI [1] was 33.5 µM, the TGI [52] was 30.4 µM and the TGI [2] was 42.4 µM. For the same compound, the TGI [3] was 43.2 µM, the TGI [4] was 33.2 µM and the TGI [5] was 37.8 µM. For the same compound, the TGI [6] was > 100 µM, the TGI [7] was 39.9 µM and the TGI [53] was 39.8 µM. It also gave a TGI [8] of 31 µM, a TGI [54] of 35.3 µM and a TGI [9] of 28.8 µM. It also gave a TGI [10] of 36.1 µM, a TGI [11] of 79.5 µM and a TGI [55] of 34.1 µM. The TGI [13] was 62.6 µM, the TGI [14] was 26.3 µM and the TGI [15] was 34.5 µM. It also gave a TGI [16] of 55.2 µM, a TGI [17] of 27.5 µM and a TGI [18] of 28.6 µM. The TGI [19] was 65 µM, the TGI [20] was 36.2 µM and the TGI [21] was 33.3 µM. It also gave a TGI [22] of 31.4 µM, a TGI [23] of 32.8 µM and a TGI [24] of 47.8 µM. The TGI [25] was 44.8 µM, the TGI [26] was 30.4 µM and the TGI [56] was 45.3 µM. It also gave a TGI [27] of 44.9 µM, a TGI [28] of 29.2 µM and a TGI [29] of 28.6 µM. The TGI [30] was 46.5 µM, the TGI [57] was 39.2 µM and the TGI [58] was 88.1 µM. For the same compound, the TGI [31] was 30.7 µM, the TGI [32] was 38.7 µM and the TGI [33] was 75 µM. It also gave a TGI [35] of 42.5 µM, a TGI [36] of 33.2 µM and a TGI [37] of 43.6 µM. The TGI [59] was 40.2 µM, the TGI [38] was 32.3 µM and the TGI [39] was 29 µM. The TGI [40] was 42.4 µM, the TGI [41] was 36.3 µM and the TGI [42] was 31.2 µM. For the same compound, the TGI [43] was 29.4 µM, the TGI [45] was 45.8 µM and the TGI [46] was 34.3 µM. For the same compound, the TGI [47] was 33.5 µM, the TGI [48] was 35.9 µM and the TGI [49] was 40.2 µM. It also gave a TGI [50] of 26.5 µM and a TGI [51] of 33.2 µM.

Reference: PubChem BioAssay (NCI)
